# Columns and labels:
# [1] = tested on: Ctenocephalides felis; assay: Efficacy of spinosyn per os to dogs against Ctenocephalides felis, comb counts of live adult fleas (Example 2); type: in vivo; conditions: for percent reduction in live adult flea counts: by the day 14 comb count
# Source text: (§1) Methods: A pool of 40 dogs are to be preliminarily infested with ˜100 unfed adult C. felis in order to produce a pool of dogs that can suitably sustain a reliable infestation rate of approximately 50% of live fleas over a 48-hour period. The dogs with the highest live flea counts are to be randomly allocated to 4 treatment groups (6 dogs per group) based on their pre-treatment flea counts from experimental infestations. The first treatment group is to be the control group and groups 2-4 are to be the test groups.
# The dogs are to be housed individually during the study period and are to be fed a commercial dry dog food ration with ad libitum access to water.
# Dogs in the control group are not to receive a spinosyn or any other flea control treatment. Each dog in test groups 2-4 is to be offered its daily ration (dry food) and the individual doses of liquid formulation are to be administered after the individual dog has eaten at least 25% of its total daily ration. After receiving the dose of a spinosyn the dogs are to be allowed to continue eating. This mimics incorporating the spinosyn in feed. Each dog in test groups 2-4 and the control group is to be experimentally infested with 100 unfed adult fleas on test days −1, 5, 12, 19, 28 and 35. Comb counts for live adult fleas are to be conducted on days 2, 7, 14, 21, 30 and 37. The final experimental infestation is to occur five days after the last daily dose of spinosyn.
# [2] = tested on: C. felis; assay: Efficacy of spinosyn in medicated feed dosed at 0.5 mg/kg, comb counts of live adult fleas (Example 3); type: in vivo; conditions: dogs
# Source text: as §1, with “pool of dogs are” for “pool of 40 dogs are”, “pool of 18 dogs that” for “pool of dogs that”, “allocated to 3 groups (6” for “allocated to 4 treatment groups (6”, “and groups 2-3 are to” for “and groups 2-4 are to”
# The dogs are to be housed individually during the study period and are to have ad libitum access to water.
# There is to be an initial acclimation period of at least 4 days during which dogs in test groups 2 and 3 are to be transitioned from a standard certified commercial chow to an unmedicated version of the daily feed. During the acclimation period, the dogs are to be allowed 1 hour to consume the feed, after which the dogs' acceptance of the feed will be observed and recorded.
# Dogs in the control group are not to receive a spinosyn or any other flea control treatment. On days 0-29, each dog in test groups 2 and 3 is to be offered its daily feed containing spinosyn for a period of 1 hour. On days 30-37 all dogs will be given regular dog food, without spinosyn, or a physiologically acceptable derivative thereof […]
substance,measurement,setting,value
spinosad,percent reduction in live adult flea counts,"[1]; Group 2, 0.25 mg/kg daily oral",100%
same,efficacy (reduction in live adult flea counts),"[1]; Group 3, 0.50 mg/kg daily oral days 0-29, day 37, after wash out period",over 98%
same,percent reduction in live adult flea counts,"[1]; Group 3, 0.50 mg/kg daily oral",100%
same,efficacy (reduction in live adult flea counts),"[1]; Group 4, 1.0 mg/kg daily oral days 0-29, day 37, after wash out period",over 98%
same,percent reduction in live adult flea counts,"[1]; Group 4, 1.0 mg/kg daily oral",100%
same,efficacy (reduction in live adult flea counts),"[2]; Group 2, 0.5 mg/kg daily feed formulation 1, by the 14-day comb count",over 90%
same,efficacy (reduction in live adult flea counts),"[2]; Group 3, 0.5 mg/kg daily feed formulation 2, by the 14-day comb count",over 90%
